Measured values published in PubChem BioAssay (NCI).
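Results reflect a 48-hour exposure of cells in 96-well plates to compound at five concentrations. At the GI50, growth is halved. TGI: total growth inhibition.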

Experiments:
Assay in all cases: NCI-60 cell line screen, 48 h
[1] = test system: SR leukemia
[2] = test system: RXF 393 renal
[3] = test system: NCI-H522 lung
[4] = test system: HCC-2998 colon
[5] = test system: SF-268 CNS
[6] = test system: RPMI-8226 leukemia
[7] = test system: K-562 leukemia
[8] = test system: HCT-116 colon
[9] = test system: A498 renal
[10] = test system: MDA-MB-231 breast

| Compound | TGI [1] [µM] | TGI [2] [µM] | TGI [3] [µM] | TGI [4] [µM] | TGI [5] [µM] | TGI [6] [µM] | TGI [7] [µM] | TGI [8] [µM] | TGI [9] [µM] | GI50 [10] [µM] | TGI [10] [µM] | GI50 [2] [µM] | GI50 [3] [µM] | GI50 [9] [µM] | GI50 [4] [µM] | GI50 [5] [µM] | GI50 [6] [µM] | GI50 [7] [µM] | GI50 [8] [µM] | GI50 [1] [µM] |
| --- | --- | --- | --- | --- | --- | --- | --- | --- | --- | --- | --- | --- | --- | --- | --- | --- | --- | --- | --- | --- |
| CN1C=C(C(N)=O)Cc2ccsc21 | > 100 | > 100 | > 100 | > 100 | > 100 | > 100 | > 100 | > 100 | – | – | – | – | – | – | – | – | – | – | – | – |
| CCCCCCCCCCCCNC(=S)OCCCC | > 100 | > 100 | > 100 | > 100 | > 100 | 51 | > 100 | > 100 | > 100 | – | – | – | – | – | – | – | – | – | – | – |
| Cc1nc2ccccc2c(/C=C/c2ccc(F)cc2)c1C(=O)/C=C/c1ccccc1 | – | 3.26 | 5.79 | 3.32 | > 100 | 5.95 | 8.24 | 3.66 | 4.62 | 2.24 | 6.33 | 1.74 | 2 | 2.22 | 1.76 | 3.45 | 1.87 | 2.44 | 1.25 | – |
| Cc1ccc(C)c(NC(=O)C(=O)C(C2C(C)CC(=O)C2CC(=O)O)[N+](=O)[O-])c1 (configuration not stated) | > 100 | > 100 | – | > 100 | > 100 | > 100 | > 100 | > 100 | > 100 | – | – | – | – | – | – | – | – | – | – | – |
| O=C(OCc1ccccc1)N1N=NC2C3CC(OCc4ccccc4)(OCc4ccccc4)C(O3)C21 (configuration not stated) | – | 35.6 | – | 83.2 | 87.7 | > 100 | 73.6 | – | > 100 | – | – | – | – | – | – | – | – | – | – | – |
| NC(=O)c1c(NC(=O)c2ccc(C(F)(F)F)cc2Cl)sc2c1CCC(=O)C2 | > 100 | 0.881 | 0.844 | 3.36 | 15.7 | – | – | 1.42 | 6.37 | – | – | 0.259 | 0.186 | 1.95 | – | 0.456 | – | 0.126 | 0.302 | 0.305 |
| O=C(N/N=C/c1coc2ccc(Cl)cc2c1=O)c1cc(O)c(O)c(O)c1 | – | > 100 | > 100 | 35.3 | > 100 | > 100 | 55.6 | 70 | 42.3 | 19.3 | 45 | 34.9 | 38.4 | 13.6 | 15.9 | > 100 | 28.5 | 15.2 | 19.3 | – |
| CC1Nc2ccccc2NC1C=C(C#N)C#N (configuration not stated) | 22.4 | 31.3 | 25.3 | 32.8 | 29.9 | 29.2 | 48.5 | 26.8 | – | – | – | – | – | – | – | – | – | – | – | – |
| Cc1ncc2c(n1)CCC1=C2OS(=O)(=O)CC1N(C)C (configuration not stated) | > 100 | – | > 100 | – | > 100 | > 100 | > 100 | > 100 | > 100 | – | > 100 | – | – | – | – | – | – | – | – | – |
